In patent US7358267B2, “Bis-aryl thiazole derivatives” (Amgen Inc., priority 2001, dated 2008):

Legend:
UCP3 = UCP3 RNA induction in rat L6 cells (QPCR); type: cell-based; parameters: key to UCP3 RNA induction, Induction at 10 μM: ++ denotes greater than 10-fold induction; + denotes 10-fold or less induction; — denotes no induction
Description: Table 1 provides QPCR data (ABI 7700 Sequence Detection System) for exemplary compounds of formula I evaluated for UCP3 RNA induction in L6 cells from rats. The assay is described in Example 14.4, below.
Rat UCP3 (L6 cells) QPCR Protocol
1. (Day1) Plate 300,000 L6 cells per well (24 well plate) in Minimum Essential Medium-Alpha Medium with 2% FBS and Antibiotic/Antimycotic Solution added. Incubate for 2 days and change to fresh medium (Day3). Incubate 1 more day.
2. (Day 4) Add compound at desired concentration. Incubate for 18-20 h. 2 wells per compound. 4-wells of DMSO controls per plate.
3. (Day 5) Prepare RNA from cells: • (1) Aspirate media and lyse cells directly on plate by adding 500 μL of Trizol Reagent (Gibco BRL) to each well and passing the lysate several times through a pipette. Transfer lysate to eppendorf tubes (combining the lysate from identical compound treatments). • (2) Add 200 μL of chloroform to the 1 mL of lysate. Vortex to mix and incubate at room temp. for 2-3 min. Spin samples in a microfuge at 12,000 rpm for 15 min. at 4° C. • (3) Transfer the aqueous phase to a fresh tube. Precipitate the RNA from the aqueous phase by adding 500 μL of isopropanol and mixing well. Incubate at −20° C. for at least 15 min. Pellet the RNA by spinning at 12,000 rpm for 10 min. at 4° C. • (4) Remove the supernatant and wash the RNA pellet with 500 μL of 75% ethanol. Spin at 10,000 rpm for 5 min. at 4° C. • (5) Remove the supernatant and allow pellet to air dry briefly. Dissolve RNA in 15 μL of RNase-free water. Store at −80° C. Electrophorese some RNA to check quality.
4. QPCR (50 μL reactions in 96 well MicroAmp Optical Plate): TaqMan Gold RT-PCR Reagents (PE catalog #N808-0232): OD RNA and dilute to 5 ng/μL in RNase-free water. All samples run in duplicate with UCP3 and m18S probe/primers
Add 40 μL of Reaction Mix to 10 μL of diluted RNA (50 ng total) on QPCR plate PCR Cycling Parameters • 48° C. 30 min. • 95° C. 10 min. • 40 cycles: 95° C. 15 sec. • 58° C. 1.5 min. QPCR Primers/Probes

RXRα = target: T1, RXRα (Homo sapiens, UniProt P19793); assay: RXRα induction in HEK 293 cells (transient transfection, luciferase reporter); type: cell-based
T1 construct: expressed in transfected cells; host or cells: HEK 293 cells
T1 sequence (P19793 1-462): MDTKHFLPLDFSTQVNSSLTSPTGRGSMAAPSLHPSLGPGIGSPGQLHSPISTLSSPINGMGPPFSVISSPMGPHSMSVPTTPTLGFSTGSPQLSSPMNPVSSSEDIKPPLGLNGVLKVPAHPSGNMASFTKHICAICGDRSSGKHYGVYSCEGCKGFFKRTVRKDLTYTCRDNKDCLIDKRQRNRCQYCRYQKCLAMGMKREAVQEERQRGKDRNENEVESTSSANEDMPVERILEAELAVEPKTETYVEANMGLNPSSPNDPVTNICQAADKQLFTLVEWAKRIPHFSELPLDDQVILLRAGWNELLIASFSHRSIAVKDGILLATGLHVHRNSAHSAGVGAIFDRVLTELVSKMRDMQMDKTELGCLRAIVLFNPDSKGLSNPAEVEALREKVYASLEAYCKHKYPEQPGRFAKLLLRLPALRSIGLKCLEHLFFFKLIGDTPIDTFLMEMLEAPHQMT
Description: Table 2 provides QPCR data (ABI 7700 Sequence Detection System) for exemplary compounds of formula I evaluated for RXR induction in HEK 293 cells, following a general protocol, briefly described below. See Naeger et al. (1999) J. Biol. Chem. 274:1875-1878 for a related cell-based assay.
DNA constructs containing a luciferase reporter plasmid and another plasmid which contained an activation domain (e.g., RXRα) were transiently transfected into HEK 293 cells. The cells were treated with the compounds and luciferase activity was measured using a luminometer. Fold induction was determined by comparing the luciferase activity of treated cells to the activity of untreated cells.

Row | RXRα RNA induction at 1 μM (RXRα) | RXRα RNA induction at 3 μM (RXRα) | RXRα RNA induction at 10 μM (RXRα) | melting point | SMILES | fold induction at 10 µM (UCP3) | UCP3 RNA induction, Induction at 10 μM (UCP3)
1 | + (+ denotes 5-fold or less induction) | + (+ denotes 5-fold or less induction) | + (+ denotes 5-fold or less induction) | 273 to 274 °C | Cc1c(C(=O)O)cnn1-c1nc(-c2ccc(C(F)(F)F)cc2)cs1 [Compound 2, 1-[4-(4-(Trifluoromethyl)phenyl)thiazol-2-yl]-5-methylpyrazole-4-carboxylic acid] | > 10 | 
2 | + (+ denotes 5-fold or less induction) | + (+ denotes 5-fold or less induction) | + (+ denotes 5-fold or less induction) | 278 to 278.6 °C | Cc1c(C(=O)O)cnn1-c1nc(-c2ccc(Cl)c(Cl)c2)cs1 [Compound 3, 1-[4-(3,4-Dichlorophenyl)thiazol-2-yl]-5-methylpyrazole-4-carboxylic acid] | > 10 | 
3 |  |  |  | 258 to 258.3 °C | Cc1c(C(=O)O)cnn1-c1nc(-c2cccc(Cl)c2)cs1 [Compound 4, 1-[4-(3-Chlorophenyl)thiazol-2-yl]-5-methylpyrazole-4-carboxylic acid] | > 10 | 
4 | + (+ denotes 5-fold or less induction) | + (+ denotes 5-fold or less induction) | + (+ denotes 5-fold or less induction) |  | O=C(O)c1cnn(-c2nc(-c3cccc(C(F)(F)F)c3)cs2)c1C(F)(F)F [Compound 5, 1-[4-(3-(Trifluoromethyl)phenyl)thiazol-2-yl]-5-trifluoromethylpyrazole-4-carboxylic acid] | > 10 | 
5 |  |  |  | 229.1 to 229.6 °C | O=C(O)c1cnn(-c2nc(-c3cccc(C(F)(F)F)c3)cs2)c1 [Compound 6, 1-[4-(3-(Trifluoromethyl)phenyl)thiazol-2-yl]pyrazole-4-carboxylic acid] | > 10 | 
6 | + (+ denotes 5-fold or less induction) | + (+ denotes 5-fold or less induction) | + (+ denotes 5-fold or less induction) | 215.5 to 216.5 °C | Cc1c(C(=O)O)cnn1-c1nc(-c2ccccc2C(F)(F)F)cs1 [Compound 7, 1-[4-(2-(Trifluoromethyl)phenyl)thiazol-2-yl]-5-methylpyrazole-4-carboxylic acid] | > 10 | 
7 | + (+ denotes 5-fold or less induction) | + (+ denotes 5-fold or less induction) | + (+ denotes 5-fold or less induction) |  | CCOC(=O)c1cnn(-c2nc(-c3cccc([N+](=O)[O-])c3)cs2)c1C [Compound 8, Ethyl 1-[4-(3-nitrophenyl)thiazol-2-yl]-5-methylpyrazole-4-carboxylate] |  | —
8 | + (+ denotes 5-fold or less induction) | + (+ denotes 5-fold or less induction) | + (+ denotes 5-fold or less induction) | 273.1 to 274.3 °C | Cc1c(C(=O)O)cnn1-c1nc(-c2ccc3ccccc3c2)cs1 [Compound 9, 1-[4-(2-Naphthyl)thiazol-2-yl]-5-methylpyrazole-4-carboxylic acid] |  | —
9 |  |  |  | 138 to 138.5 °C | CCOC(=O)c1cnn(-c2nc(-c3cccc(C(F)(F)F)c3)cs2)c1C [Compound 11, Ethyl 1-[4-(3-(trifluoromethyl)phenyl)thiazol-2-yl]-5-methylpyrazole-4-carboxylate] | ≤ 10 | 
10 |  |  |  |  | O=C(O)c1cnn(-c2nc(-c3cccc([N+](=O)[O-])c3)cs2)c1C(F)(F)F [Compound 12, 1-[4-(3-Nitrophenyl)thiazol-2-yl]-5-trifluoromethylpyrazole-4-carboxylic acid] |  | —
11 | + (+ denotes 5-fold or less induction) | + (+ denotes 5-fold or less induction) | + (+ denotes 5-fold or less induction) | 204 to 204.7 °C | O=C(O)c1cnn(-c2nc(-c3cc(C(F)(F)F)cc(C(F)(F)F)c3)cs2)c1C(F)(F)F [Compound 13, 1-[4-(3,5-Bis(trifluoromethyl)phenyl)thiazol-2-yl]-5-(trifluoromethyl)pyrazole-4-carboxylic acid] | ≤ 10 | 
12 | + (+ denotes 5-fold or less induction) | + (+ denotes 5-fold or less induction) | + (+ denotes 5-fold or less induction) |  | O=C(O)c1cnn(-c2nc(-c3cccc(C(F)(F)F)c3)cs2)c1C(=O)O [Compound 16] |  | 
13 | + (+ denotes 5-fold or less induction) | + (+ denotes 5-fold or less induction) | + (+ denotes 5-fold or less induction) |  | Cc1c(C(=O)O)cnn1-c1nc(-c2ccccc2)cs1 [Compound 17] |  | 
14 | + (+ denotes 5-fold or less induction) | + (+ denotes 5-fold or less induction) | + (+ denotes 5-fold or less induction) |  | Cc1c(C(=O)O)cnn1-c1nc(-c2ccc(-c3ccccc3)cc2)cs1 [Compound 19] |  | 
15 |  |  |  |  | Cc1c(C(=O)NCCC(=O)O)cnn1-c1nc(-c2cccc(C(F)(F)F)c2)cs1 [Compound 20] | ≤ 10 | 

Row | SMILES | RXRα RNA induction at 1 μM (RXRα) | RXRα RNA induction at 3 μM (RXRα) | RXRα RNA induction at 10 μM (RXRα) | melting point | fold induction at 10 µM (UCP3) | UCP3 RNA induction, Induction at 10 μM (UCP3)
16 | Cc1c(C(=O)O)cnn1-c1nc(-c2cc(C(F)(F)F)cc(C(F)(F)F)c2)cs1 [Compound 10, 1-[4-(3,5-Bis(trifluoromethyl)phenyl)thiazol-2-yl]-5-methylpyrazole-4-carboxylic acid] | + (+ denotes 5-fold or less induction) | ++ (++ denotes greater than 5-fold induction) | + (+ denotes 5-fold or less induction) | 260.9 to 261.4 °C | ≤ 10 | 
17 | COc1cccc(-c2csc(-n3ncc(C(=O)O)c3C)n2)c1 [Compound 14] | ++ (++ denotes greater than 5-fold induction) | ++ (++ denotes greater than 5-fold induction) | ++ (++ denotes greater than 5-fold induction) |  |  | 
18 | CCc1c(C(=O)O)cnn1-c1nc(-c2cccc(C(F)(F)F)c2)cs1 [Compound 15] | + (+ denotes 5-fold or less induction) | ++ (++ denotes greater than 5-fold induction) | + (+ denotes 5-fold or less induction) |  |  | 
19 | Cc1c(C(=O)O)cnn1-c1nc(-c2ccc(Cl)cc2)cs1 [Compound 18] | + (+ denotes 5-fold or less induction) | ++ (++ denotes greater than 5-fold induction) | + (+ denotes 5-fold or less induction) |  |  | 
